Experimental data as given in PubChem BioAssay AID190 (DTP/NCI, 2004).
“And” between values parts separate entries of the source, which are not always exact repeats. Identical values can stand only once. Inconclusive results and toxic doses are left out. How the source made its calls: active means survival T/C of 150% or more; inactive means T/C below 125% in these data.

Tested on: AKR/Lw mice, AKR lymphoma ip, median survival T/C
Experiment: NCI In Vivo Anticancer Drug Screen. Data for tumor model Lymphoma AKR (Transplanted) (intraperitoneal) in AKR/Lw mice
Conditions: endpoint: median survival time, higher = longer survival
Description: The antitumor activity of compounds was measured in mice bearing transplantable tumors. Survival or tumor size were measured and the results are expressed as the measurement made in the treated group (T) divided by the measurement made in the vehicle treated control group (C). The tumor model used in this assay is Lymphoma AKR (Transplanted) (intraperitoneal) in AKR/Lw mice

[1] = dose: 100.0 mg/kg/injection, schedule: Q01DX001 (ip), vehicle: saline
[2] = dose: 200.0 mg/kg/injection, schedule: Q01DX001 (ip), vehicle: saline
[3] = dose: 400.0 mg/kg/injection, schedule: Q01DX001 (ip), vehicle: saline
[4] = dose: 100.0 mg/kg/injection, schedule: Q01DX001 (ip), vehicle: Klucel (hydroxypropylcellulose) (HPC)
[5] = dose: 200.0 mg/kg/injection, schedule: Q01DX001 (ip), vehicle: Klucel (hydroxypropylcellulose) (HPC)
[6] = dose: 400.0 mg/kg/injection, schedule: Q01DX001 (ip), vehicle: Klucel (hydroxypropylcellulose) (HPC)
[7] = dose: 25.0 mg/kg/injection, schedule: Q01DX001 (ip), vehicle: saline
[8] = dose: 200.0 mg/kg/injection, schedule: Q01DX001 (ip), vehicle: saline with Tween-80
[9] = dose: 25.0 mg/kg/injection, schedule: Q04DX003 (ip), vehicle: saline
[10] = dose: 50.0 mg/kg/injection, schedule: Q04DX003 (ip), vehicle: saline
[11] = dose: 100.0 mg/kg/injection, schedule: Q04DX003 (ip), vehicle: saline
[12] = dose: 12.5 mg/kg/injection, schedule: Q01DX001 (ip), vehicle: saline

Measured: T/C

Cc1cc(NS(=O)(=O)c2ccc(N)cc2)no1
inactive: [1] 110 % of control | dose: 100.0 mg/kg/injection, schedule: Q04DX003 (ip), vehicle: other 95 % of control | [2] 103 % of control | dose: 200.0 mg/kg/injection, schedule: Q04DX003 (ip), vehicle: other 95 % of control | [3] 96 % of control | dose: 400.0 mg/kg/injection, schedule: Q04DX003 (ip), vehicle: other 95 % of control

CC1NC1(c1ccccc1)[n+]1ccccc1 (centres undefined)
inactive: [2] 100 % of control

C1CC2C(CCCC23OCCO3)C2(C1)OCCO2 (centres undefined)
inactive: [4] 103 % of control | [1] 106 % of control | [5] 96 % of control | [2] 106 % of control | [6] 93 % of control | [3] 113 % of control

c1ccc2c(c1)CNCc1ccccc1-2
inactive: [1] 97 % of control

CCCN(CCC)CC(C)=O
inactive: dose: 11.0 mg/kg/injection, schedule: Q01DX001 (ip), vehicle: saline 106 % of control | dose: 17.0 mg/kg/injection, schedule: Q01DX001 (ip), vehicle: saline 103 % of control | [7] 100 % of control | dose: 37.5 mg/kg/injection, schedule: Q01DX001 (ip), vehicle: saline 100 % of control | dose: 50.0 mg/kg/injection, schedule: Q01DX001 (ip), vehicle: saline 115 % of control | [1] 105 % of control and 110 % of control

Cc1ccc(OS(=O)(=O)c2ccc([N+](=O)[O-])cc2)cc1
inactive: dose: 90.0 mg/kg/injection, schedule: Q01DX001 (ip), vehicle: Klucel (hydroxypropylcellulose) (HPC) 102 % of control | dose: 135.0 mg/kg/injection, schedule: Q01DX001 (ip), vehicle: Klucel (hydroxypropylcellulose) (HPC) 102 % of control | [5] 100 % of control | dose: 300.0 mg/kg/injection, schedule: Q01DX001 (ip), vehicle: Klucel (hydroxypropylcellulose) (HPC) 93 % of control

CC(=O)OCC(=O)[C@@]1(O)CC[C@H]2[C@@H]3C[C@H](F)C4=CC(=O)CC[C@]4(C)[C@H]3C(=O)C[C@@]21C
inactive: dose: 50.0 mg/kg/injection, schedule: Q04DX003 (ip), vehicle: saline with Tween-80 103 % of control | dose: 100.0 mg/kg/injection, schedule: Q01DX001 (ip), vehicle: saline with Tween-80 90 % of control | [8] 111 % of control

COc1cccc(CNc2cccc(Cl)c2Cl)c1OC
inactive: [8] 93 % of control and 100 % of control | dose: 400.0 mg/kg/injection, schedule: Q01DX001 (ip), vehicle: saline with Tween-80 93 % of control and 113 % of control

Cc1ccc(N=C(c2ccc([N+](=O)[O-])cc2)c2ccc([N+](=O)[O-])cc2)cc1
inactive: dose: 50.0 mg/kg/injection, schedule: Q01DX001 (ip), vehicle: Klucel (hydroxypropylcellulose) (HPC) 105 % of control | [4] 96 % of control | [5] 93 % of control and 100 % of control | [6] 100 % of control

OCC1C(CO)C2(Cl)C(Cl)=C(Cl)C1(Cl)C2(Cl)Cl (centres undefined)
inactive: [4] 100 % of control | [5] 93 % of control | [6] 91 % of control

CCCCC(C(=O)OCC)C(CCC1CCCCC1)(C(=O)OCC)C(=O)OCC (centres undefined)
inactive: [4] 110 % of control | [5] 104 % of control

Nc1ccccc1SC1CC(=O)N(c2ccc(I)cc2)C1=O (centres undefined)
inactive: [4] 93 % of control | dose: 100.0 mg/kg/injection, schedule: Q04DX003 (ip), vehicle: Klucel (hydroxypropylcellulose) (HPC) 90 % of control | dose: 200.0 mg/kg/injection, schedule: Q04DX003 (ip), vehicle: Klucel (hydroxypropylcellulose) (HPC) 86 % of control

NC(Cc1ccc([N+](=O)[O-])cc1)C(=O)O (centres undefined)
inactive: [1] 94 % of control | [2] 96 % of control

CC12CC3CC(C1)CC(C(=O)O)(C3)C2
inactive: [9] 97 % of control | [10] 102 % of control | [1] 100 % of control | [11] 100 % of control | [2] 101 % of control | [3] 108 % of control

O=C(O)CCCc1ccc(N(CCCl)CCCl)cc1
inactive: dose: 0.12 mg/kg/injection, schedule: Q01DX009 (ip), vehicle: Klucel (hydroxypropylcellulose) (HPC) 97 % of control | dose: 0.25 mg/kg/injection, schedule: Q01DX009 (ip), vehicle: Klucel (hydroxypropylcellulose) (HPC) 94 % of control and 96 % of control | dose: 0.5 mg/kg/injection, schedule: Q01DX009 (ip), vehicle: Klucel (hydroxypropylcellulose) (HPC) 100 % of control | dose: 1.0 mg/kg/injection, schedule: Q01DX009 (ip), vehicle: Klucel (hydroxypropylcellulose) (HPC) 96 % of control and 102 % of control | dose: 1.2 mg/kg/injection, schedule: Q01DX009 (ip), vehicle: Klucel (hydroxypropylcellulose) (HPC) 100 % of control | dose: 1.2 mg/kg/injection, schedule: Q04DX003 (ip), vehicle: Klucel (hydroxypropylcellulose) (HPC) 94 % of control | dose: 1.25 mg/kg/injection, schedule: Q04DX003 (ip), vehicle: saline 103 % of control | dose: 2.0 mg/kg/injection, schedule: Q01DX009 (ip), vehicle: Klucel (hydroxypropylcellulose) (HPC) 100 % of control | dose: 2.5 mg/kg/injection, schedule: Q01DX009 (ip), vehicle: Klucel (hydroxypropylcellulose) (HPC) 93 % of control and 107 % of control | dose: 2.5 mg/kg/injection, schedule: Q04DX003 (ip), vehicle: Klucel (hydroxypropylcellulose) (HPC) 100 % of control | dose: 2.5 mg/kg/injection, schedule: Q04DX003 (ip), vehicle: saline 86 % of control and 118 % of control | dose: 3.75 mg/kg/injection, schedule: Q01DX009 (ip), vehicle: saline 119 % of control | dose: 4.0 mg/kg/injection, schedule: Q01DX009 (ip), vehicle: Klucel (hydroxypropylcellulose) (HPC) 118 % of control | dose: 5.0 mg/kg/injection, schedule: Q01DX009 (ip), vehicle: Klucel (hydroxypropylcellulose) (HPC) 86 % of control and 110 % of control | dose: 5.0 mg/kg/injection, schedule: Q04DX003 (ip), vehicle: Klucel (hydroxypropylcellulose) (HPC) 100 % of control and 105 % of control and 117 % of control | dose: 5.0 mg/kg/injection, schedule: Q04DX003 (ip), vehicle: saline 93 % of control and 97 % of control | dose: 6.2 mg/kg/injection, schedule: Q01DX001 (ip), vehicle: Klucel (hydroxypropylcellulose) (HPC) 95 % of control and 120 % of control | dose: 6.25 mg/kg/injection, schedule: Q01DX009 (ip), vehicle: saline 97 % of control | dose: 7.5 mg/kg/injection, schedule: Q01DX009 (ip), vehicle: Klucel (hydroxypropylcellulose) (HPC) 106 % of control | dose: 7.5 mg/kg/injection, schedule: Q01DX009 (ip), vehicle: saline 122 % of control | dose: 12.5 mg/kg/injection, schedule: Q01DX001 (ip), vehicle: Klucel (hydroxypropylcellulose) (HPC) 109 % of control and 118 % of control | [12] 109 % of control and 111 % of control | dose: 15.0 mg/kg/injection, schedule: Q01DX009 (ip), vehicle: saline 122 % of control | dose: 20.0 mg/kg/injection, schedule: Q04DX003 (ip), vehicle: saline 94 % of control | dose: 40.0 mg/kg/injection, schedule: Q04DX003 (ip), vehicle: Klucel (hydroxypropylcellulose) (HPC) 100 % of control | [4] 104 % of control

O=C(O)C12CCC(CC1)C2
inactive: [9] 110 % of control | [10] 102 % of control | [1] 103 % of control | [11] 100 % of control | [2] 105 % of control | [3] 105 % of control

NCOC(=O)Cc1ccc(Br)cc1
inactive: [4] 106 % of control | [5] 102 % of control | [6] 106 % of control

O=C(c1ccccc1)C1CCC1
inactive: [4] 95 % of control | [5] 95 % of control

C[C@@H]1C[C@H]2[C@@H]3CCC4=CC(=O)C=C[C@]4(C)[C@@]3(F)[C@@H](O)C[C@]2(C)[C@@]1(O)C(=O)CO
inactive: dose: 0.25 mg/kg/injection, schedule: Q01DX004 (sc), vehicle: saline 121 % of control | dose: 0.5 mg/kg/injection, schedule: Q01DX004 (sc), vehicle: saline 103 % of control and 110 % of control | dose: 1.0 mg/kg/injection, schedule: Q01DX004 (sc), vehicle: saline 103 % of control and 121 % of control | dose: 1.8 mg/kg/injection, schedule: Q01DX004 (sc), vehicle: saline 89 % of control | dose: 2.6 mg/kg/injection, schedule: Q01DX004 (sc), vehicle: saline 103 % of control | dose: 4.0 mg/kg/injection, schedule: Q01DX004 (sc), vehicle: saline 103 % of control | dose: 4.5 mg/kg/injection, schedule: Q01DX004 (sc), vehicle: saline 96 % of control

CC1(C)CC[N+]1(C)Cc1ccccc1 (centres undefined)
inactive: dose: 6.25 mg/kg/injection, schedule: Q01DX001 (ip), vehicle: saline 97 % of control | [12] 100 % of control | [7] 100 % of control

S=C1NC(c2ccccc2)NC(c2ccccc2)S1 (centres undefined)
inactive: [4] 92 % of control | [5] 92 % of control | [6] 96 % of control
